System: plants
Assay: Test D pre-emergence, other plants of Tables D1 and D3
Type: in vivo
Details: for damage to plant, ALOMY / damage to plant, AVEFA / damage to plant, BEAVA / damage to plant, BROTE / damage to plant, BRSNN / damage to plant, CHEAL / damage to plant, GALAP / damage to plant, HORVW / damage to plant, KCHSC / damage to plant, LOLPE / damage to plant, POAAN / damage to plant, POLCO / damage to plant, SINAR / damage to plant, STEME / damage to plant, VERPE: pre-emergence, 100=total damage, 0=no damage
Procedure, shortened: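 Seeds treated with herbicide safener; sown in soil; glasshouse, 16 h light, 65% humidity. Sprayed day 1 (pre) or ~day 12 (post). Spray in 0.2% v/v adjuvant. Scored 0–100 damage: 20 DAA pre, 15 d post.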

SMILES: CN1CC(c2cc(C(F)(F)F)n(C)n2)C(C(=O)Nc2ccccc2F)C1=O (racemic) [Compound 9]
- damage to plant (100=total damage to plant; 0=no damage to plant), SORVU (SORVU, preemergent, rate 500, 20 DAA): 0
- damage to plant, ALOMY (rate 15, 20 DAA): 0
- damage to plant, AVEFA (rate 15, 20 DAA): 0
- damage to plant, BEAVA (rate 15, 20 DAA): 0
- damage to plant, BROTE (rate 15, 20 DAA): 0
- damage to plant, BRSNN (rate 15, 20 DAA): 0
- damage to plant, CHEAL (rate 15, 20 DAA): 0
- damage to plant, GALAP (rate 15, 20 DAA): 0
- damage to plant, HORVW (rate 15, 20 DAA): 0
- damage to plant, KCHSC (rate 15, 20 DAA): 0
- damage to plant, LOLPE (rate 15, 20 DAA): 0
- damage to plant, POAAN (rate 15, 20 DAA): 0
- damage to plant, POLCO (rate 15, 20 DAA): 0
- damage to plant, SINAR (rate 15, 20 DAA): 0
- damage to plant, STEME (rate 15, 20 DAA): 0
- damage to plant, VERPE (rate 15, 20 DAA): 0
- damage to plant, ALOMY (rate 30, 20 DAA): 0
- damage to plant, AVEFA (rate 30, 20 DAA): 0
- damage to plant, BEAVA (rate 30, 20 DAA): 0
- damage to plant, BROTE (rate 30, 20 DAA): 0
- damage to plant, BRSNN (rate 30, 20 DAA): 0
- damage to plant, CHEAL (rate 30, 20 DAA): 0
- damage to plant, GALAP (rate 30, 20 DAA): 0
- damage to plant, HORVW (rate 30, 20 DAA): 0
- damage to plant, KCHSC (rate 30, 20 DAA): 0
- damage to plant, LOLPE (rate 30, 20 DAA): 0
- damage to plant, POAAN (rate 30, 20 DAA): 0
- damage to plant, POLCO (rate 30, 20 DAA): 0
- damage to plant, SINAR (rate 30, 20 DAA): 0
- damage to plant, STEME (rate 30, 20 DAA): 0
- damage to plant, VERPE (rate 30, 20 DAA): 0
- damage to plant, ALOMY (rate 60, 20 DAA): 0
- damage to plant, AVEFA (rate 60, 20 DAA): 0
- damage to plant, BEAVA (rate 60, 20 DAA): 0
- damage to plant, BROTE (rate 60, 20 DAA): 0
- damage to plant, BRSNN (rate 60, 20 DAA): 0
- damage to plant, CHEAL (rate 60, 20 DAA): 0
- damage to plant, GALAP (rate 60, 20 DAA): 0
- damage to plant, HORVW (rate 60, 20 DAA): 0
- damage to plant, KCHSC (rate 60, 20 DAA): 0
- damage to plant, LOLPE (rate 60, 20 DAA): 0
- damage to plant, POAAN (rate 60, 20 DAA): 0
- damage to plant, POLCO (rate 60, 20 DAA): 0
- damage to plant, SINAR (rate 60, 20 DAA): 0
- damage to plant, STEME (rate 60, 20 DAA): 0
- damage to plant, VERPE (rate 60, 20 DAA): 0
- damage to plant, ALOMY (rate 130, 20 DAA): 0
- damage to plant, AVEFA (rate 130, 20 DAA): 0
- damage to plant, BEAVA (rate 130, 20 DAA): 0
- damage to plant, BROTE (rate 130, 20 DAA): 0
- damage to plant, BRSNN (rate 130, 20 DAA): 0
- damage to plant, CHEAL (rate 130, 20 DAA): 0
- damage to plant, GALAP (rate 130, 20 DAA): 0
- damage to plant, HORVW (rate 130, 20 DAA): 0
- damage to plant, KCHSC (rate 130, 20 DAA): 0
- damage to plant, LOLPE (rate 130, 20 DAA): 0
- damage to plant, POAAN (rate 130, 20 DAA): 10
- damage to plant, POLCO (rate 130, 20 DAA): 0
- damage to plant, SINAR (rate 130, 20 DAA): 0
- damage to plant, STEME (rate 130, 20 DAA): 0
- damage to plant, VERPE (rate 130, 20 DAA): 0
- damage to plant, ALOMY (rate 250, 20 DAA): 0
- damage to plant, AVEFA (rate 250, 20 DAA): 10
- damage to plant, BEAVA (rate 250, 20 DAA): 0
- damage to plant, BROTE (rate 250, 20 DAA): 0
- damage to plant, BRSNN (rate 250, 20 DAA): 0
- damage to plant, CHEAL (rate 250, 20 DAA): 0
- damage to plant, GALAP (rate 250, 20 DAA): 0
- damage to plant, HORVW (rate 250, 20 DAA): 0
- damage to plant, KCHSC (rate 250, 20 DAA): 0
- damage to plant, LOLPE (rate 250, 20 DAA): 30
- damage to plant, POAAN (rate 250, 20 DAA): 10
- damage to plant, POLCO (rate 250, 20 DAA): 0
- damage to plant, SINAR (rate 250, 20 DAA): 0
- damage to plant, STEME (rate 250, 20 DAA): 10
- damage to plant, VERPE (rate 250, 20 DAA): 0
- damage to plant, ALOMY (rate 500, 20 DAA): 0
- damage to plant, AVEFA (rate 500, 20 DAA): 20
- damage to plant, BEAVA (rate 500, 20 DAA): 0
- damage to plant, BROTE (rate 500, 20 DAA): 0
- damage to plant, BRSNN (rate 500, 20 DAA): 0
- damage to plant, CHEAL (rate 500, 20 DAA): 0
- damage to plant, GALAP (rate 500, 20 DAA): 10
- damage to plant, HORVW (rate 500, 20 DAA): 0
- damage to plant, KCHSC (rate 500, 20 DAA): 0
- damage to plant, LOLPE (rate 500, 20 DAA): 20
- damage to plant, POAAN (rate 500, 20 DAA): 50
- damage to plant, POLCO (rate 500, 20 DAA): 0
- damage to plant, SINAR (rate 500, 20 DAA): 0
- damage to plant, STEME (rate 500, 20 DAA): 80
- damage to plant, VERPE (rate 500, 20 DAA): 0

Reference: US20220281848A1, “PYRAZOLE-SUBSTITUTED PYRROLIDINONES AS HERBICIDES” (FMC Corporation, priority 2019, published 2022)
